# Assay results reported in patent US20160256504A1, “[…] COMPOSITION CONTAINING […] MUSHROOM [[…] EDODES] […] CULTURE AND NATTO BACTERIA [BACILLUS SUBTILIS NATTO] CULTURE” (HK Biotech Co., LTD., priority 2014, published 2016).
# Columns and labels:
# blood homocysteine = details: rats, hyperhomocysteinemia induced by guanidinoacetic acid injection, EA injected; cited from earlier work
# NO = NO content in NAME-induced hypertensive rat model; assay type: in vivo; details: NAME-induced hypertensive rats
# Experimental: (§1) The biochemical markers relating to the blood pressure were measured, by collecting blood and organs of the rats used in the experimental examples 1 (non-genetic NAME-induced hypertension) and 3 (4-week-treatments on SHR). […] And from the rats of the experimental example 3, ACE activity and the activity of plasma plasminogen activator inhibitor-1 (PAI-1) of the plasma and the livers were measured. […] The following TABLE 5 is describing NO content and NOS activity of shiitake mushroom mycelium culture and natto bacteria culture mixture in the NAME-induced hypertensive rat model.
# NOS = NOS activity in NAME-induced hypertensive rat model; assay type: in vivo; details: NAME-induced hypertensive rats
# Experimental: as §1
# [1] = tested on: plasma plasminogen activator inhibitor-1 (PAI-1); experiment: Plasma PAI-1 content in SHR after 4-week treatment; assay type: in vivo, rat
smiles,measurement,setting,value
"Nc1ncnc2c1ncn2C[C@@H](O)[C@@H](O)C(=O)O [EA, eritadenine]",blood homocysteine,blood homocysteine,reduced
NNc1nncc2ccccc12 [hydralazine],NO Lung,NO; 0 week,10 nM/ml
same,NO Lung,NO; 4 weeks,7 nM/ml
same,NO Plasma,NO; 0 week,21 nM/ml
same,NO Plasma,NO; 4 weeks,20 nM/ml
same,NOS Aorta,NOS; 0 week,0.80 NO pmle/mg protein/min
same,NOS Aorta,NOS; 4 weeks,1.08 NO pmle/mg protein/min
same,NOS Plasma,NOS; 0 week,6.0 NO umole/L
same,NOS Plasma,NOS; 4 weeks,8.5 NO umole/L
"C[C@H](CS)C(=O)N1CCC[C@H]1C(=O)O [CP, captopril]",Plasma PAI-1,[1]; 0 week,113 pg/mL
same,Plasma PAI-1,[1]; 4 weeks,127 pg/mL
